Laboratory results: patent publication US9914914B2, “Polymerase capable of producing non-DNA nucleotide polymers” (Medical Research Council, priority 2012, dated 2018)
[HNA-N] = hexitol nucleic acid (N: the base)

Legend:
[1] = biological target: T1, CD30 (Homo sapiens, UniProt P28908); experiment: Fluorescence polarisation affinity of txNA aptamers; assay type: binding
T1 construct: selections were carried out against the extracellular domains of both CD30 and L1-CAM expressed as N-terminal Fc chimeras
T1 sequence (P28908 19-385 limits assumed): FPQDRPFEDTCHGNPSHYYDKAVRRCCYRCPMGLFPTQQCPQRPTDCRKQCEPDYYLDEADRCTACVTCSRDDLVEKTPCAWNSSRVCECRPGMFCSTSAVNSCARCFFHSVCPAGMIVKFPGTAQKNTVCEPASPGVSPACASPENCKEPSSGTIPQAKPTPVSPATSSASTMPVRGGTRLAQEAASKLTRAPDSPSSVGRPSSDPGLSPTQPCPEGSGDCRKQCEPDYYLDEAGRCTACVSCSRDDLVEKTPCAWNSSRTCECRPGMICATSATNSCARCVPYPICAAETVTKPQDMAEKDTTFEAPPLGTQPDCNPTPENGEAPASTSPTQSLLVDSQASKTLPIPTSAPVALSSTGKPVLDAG
Description: In this example, selections were carried out against the extracellular domains of both CD30 and L1-CAM expressed as N-terminal Fc chimeras. Briefly, for each round libraries were annealed in 1×HBSSTT (Hanks' Balanced Salt Solution with 5 mM each TRIS pH 7.4 and 8.3 and 0.05% Tween-20) for 5 min 85° C. and cooled to 4° C. at 0.1° C./sec, exposed to either protein AG or streptavidin-coated paramagnetic beads (see below), filtered to remove the beads and then added to recombinant protein in 1×HBSST. These mixtures were incubated at room temperature on a rotator to allow aptamers to bind to the recombinant proteins in solution and binders were recovered via protein AG or streptavidin-coated paramagnetic beds. Rounds 1, 2 and 5 were carried out using native protein and Protein AG Magnetic Beads (Pierce). All other rounds were carried out using protein biotinylated with NHS-LC-LC-biotin (Pierce) and recovered from the binding incubation using NanoLink Streptavidin Magnetic beads (SoluLink). The beads were washed in 1×HBSSTT for 2 h-16 h at room temperature using a Thermo KingFisher and aptamers eluted from the proteins bound to the beads using 30 mM NaOH. Negative selections were carried out against free Fc from round 5 onwards. […]
Aptamers selected against a) CD30 and b) L1-CAM were tested in fluorescence polarisation (FP) and affinities calculated as above (and/or Pinheiro et al (2012)). […]

[2] = test system: sTAR (HIV trans-activating response RNA motif); experiment: HNA aptamer affinity by SPR, BLI and ELONA titration; assay type: binding; conditions: read-out: dissociation constant (KD)
Description: ELONA (Aptamer-ELISA) was carried out as described (56) with minor modifications. For screening and characterization, ssRNA-HNA chimeras were prepared as described above (13.) (using fitcRNAfd (Table S5)) and binding assayed by immunodetection of the FITC-tag on the bound aptamer. […] Bound antibody was detected using a colorimetric substrate as described above (see PAA, 5) […]
For anti-TAR aptamers, 1000RU sTAR was captured (or, as a reference flow cell, 1000RU scrambledTAR-1) before blocking with excess free biotin. Anti-TAR aptamers were injected for 150 s at a series of concentrations (125 nM, 62.5 nM, 31.3 nM, 15.6 nM, 7.8 nM and 3.9 nM) and dissociation monitored for 600 s, in buffer R (20 mM NaOAc, 140 mM KOAc, 3 mM Mg(OAc)2, 0.1% (v/v) Tween20). […]
To obtain optimal fits, SPR data was fitted to double-exponential model using KaleidaGraph (Synergy Software, Pennsylvania, USA) and Prism (GraphPad Software Inc., California, USA) (57). The rate constants of dissociation were measured by fitting dissociation data at time t (Rdissoc) using a double-exponential function: Rdissoc=Rolexp^−(k^off1^t)+Ro2exp^−(k^off2^t)+RI (1) where koff is the dissociation rate constant, Ro is maximum change in resonance for each phase, RI is the bulk resonance change. […]

| Substance | binding to CD30 [1] | Kd [2] |
| --- | --- | --- |
| CD30_13: txNA aptamer selected against CD30, SEQ ID NO:20 (TAGATGTGGTAGAAGTCGTCATTTGGCGAGAAAGCTCAGTCTCAGG; XNA aptamer, chemistry of this clone not given here) | bind CD30 tightly and with good affinity |  |
| T5-S8-7: anti-TAR HNA aptamer, SEQ ID NO:16 (AGGTAGTGCTGTTCGTTCATCTCAAATCTAGTTCGCTATCCAGTTGGC; all [HNA-N], backbone and methylation of C not given here) |  | 28 to 67 nM |
